Test results from patent publication US5326882A, “Chemiluminescent 3-(substituted Adamant-2'-Ylidene) 1,2-dioxetanes” (Tropix, Inc., priority 1992, dated 1994).

How the values were obtained:
alkaline phosphatase [1] = target: T1, alkaline phosphatase (Bos taurus, UniProt P19111); test: Chemiluminescent signal and signal:background with enhancer polymers (Example XVII); assay type: biochemical
Method: Four sets of three tubes each, each tube in each set containing 450 μl of a 0.4 mM aqueous solution of one of the four 1,2-dioxetanes being compared in 0.1M diethanolamine containing 1 mM magnesium chloride, 0.02% sodium azide and 0.1% of the enhancer polymer, pH 10.0 (substrate buffer) were prepared and the background signal from each tube measured using a Berthold LB 952T luminometer (Berthold Instruments; Wildbad, Federal Republic of Germany).
Next, 50 μl of an aqueous solution, 2.83×10^-12 M of alkaline phosphatase in 0.1M diethanolamine containing 1 mM magnesium chloride, 0.02% sodium azide, pH 10.0, (final enzyme concentration 2.83×10^-13 M) was added to each tube and the chemiluminescent signals were measured in the luminometer at 5 and 20 minutes. The intensity of the chemiluminescent signals and the signal: background ratios obtained for each of the four 1,2-dioxetanes in the presence of the enhancer polymers are shown in Table III below.
The enhancer polymers used, and the symbols for such polymers used in Table III, were the following: […]

alkaline phosphatase [2] = target: T1, alkaline phosphatase; test: Chemiluminescent signal-to-noise levels with enhancers (Example XXIV); assay type: biochemical
Method: The chemiluminescent signal to noise levels were obtained with 2.83×10^-13 M alkaline phosphatase and various R-substituted adamantyl 1,2-dioxetane phosphates in the presence of several enhancers. All measurements were performed in a Berthold LB952T luminometer at room temperature. First, the background chemiluminescence levels (signal in the absence of the enzyme) of each sample (in triplicate) were measured. Each sample consisted of 0.2 μmoles of dioxetane in 0.45 ml of 0.1 M diethanolamine, 1 mM MgCl2, pH 10.0, without or with 1 mg/ml of the indicated enhancer. Tubes were inserted into the luminometer and the luminescence intensity was measured. Next, the tubes were removed from the luminometer and alkaline phosphatase (50 μl containing 1.415×10^-16 moles) was added to each tube, and the luminescence intensity was measured at 5 and 20 minutes after substrate addition. The final concentration of dioxetane in each tube was 0.4 mM.
All enhancers used at 1 mg/ml in 0.1 M DEA, pH 10. Alkaline phosphatase concentration=2.83×10^-13 M. Measurements performed in a Berthold LB952T Luminometer.

T1 sequence (P19111 20-506 limits assumed): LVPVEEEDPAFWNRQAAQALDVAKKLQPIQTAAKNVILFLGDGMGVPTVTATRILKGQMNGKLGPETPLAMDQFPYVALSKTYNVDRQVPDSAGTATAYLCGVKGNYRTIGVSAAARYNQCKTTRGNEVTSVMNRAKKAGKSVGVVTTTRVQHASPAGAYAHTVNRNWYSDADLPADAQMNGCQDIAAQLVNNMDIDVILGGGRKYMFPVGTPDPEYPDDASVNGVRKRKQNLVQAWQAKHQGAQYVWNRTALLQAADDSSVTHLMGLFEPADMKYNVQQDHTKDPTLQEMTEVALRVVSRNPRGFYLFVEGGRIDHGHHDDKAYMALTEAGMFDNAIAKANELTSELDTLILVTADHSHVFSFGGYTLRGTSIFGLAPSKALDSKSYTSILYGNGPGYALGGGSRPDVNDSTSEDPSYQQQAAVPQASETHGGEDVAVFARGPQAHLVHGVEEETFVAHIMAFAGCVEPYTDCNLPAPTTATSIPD

COC1(c2cccc(OP(=O)(O)O)c2)OOC12C1CC3CC2CC(Cl)(C3)C1 (stereo not shown) [Cl-AMPPD, disodium 3-(4-methoxyspiro-[1,2-dioxetane-3,2'-(5'-chloro)tricyclo[3.3.1.1^3,7]decan]-4-yl) phenyl phosphate] was tested, and the S/N (alkaline phosphatase [1]; polymer BAEDM, 5 min) was 102.2, the SIGNAL (alkaline phosphatase [1]; polymer BAEDM, 5 min) was 9086.9 and the S/N (alkaline phosphatase [1]; polymer BAEDM, 20 min) was 193.3. The SIGNAL (alkaline phosphatase [1]; polymer BAEDM, 20 min) was 17185.4, the S/N (alkaline phosphatase [1]; polymer BAEDM, time 0) was 1.0 and the SIGNAL (alkaline phosphatase [1]; polymer BAEDM, time 0 (background, before enzyme)) was 88.9. For the same compound, the S/N (alkaline phosphatase [1]; polymer DAA TMQ, 5 min) was 125.1, the SIGNAL (alkaline phosphatase [1]; polymer DAA TMQ, 5 min) was 10328.7 and the S/N (alkaline phosphatase [1]; polymer DAA TMQ, 20 min) was 159.9. It also gave an SIGNAL (alkaline phosphatase [1]; polymer DAA TMQ, 20 min) of 13204.2, a S/N (alkaline phosphatase [1]; polymer DAA TMQ, time 0) of 1.0 and an SIGNAL (alkaline phosphatase [1]; polymer DAA TMQ, time 0 (background, before enzyme)) of 82.6. The S/N (alkaline phosphatase [1]; polymer DMQ TEQ, 5 min) was 514.6, the SIGNAL (alkaline phosphatase [1]; polymer DMQ TEQ, 5 min) was 39712.8 and the S/N (alkaline phosphatase [1]; polymer DMQ TEQ, 20 min) was 747.2. For the same compound, the SIGNAL (alkaline phosphatase [1]; polymer DMQ TEQ, 20 min) was 57658.0, the S/N (alkaline phosphatase [1]; polymer DMQ TEQ, time 0) was 1.0 and the SIGNAL (alkaline phosphatase [1]; polymer DMQ TEQ, time 0 (background, before enzyme)) was 77.2. For the same compound, the SIGNAL (alkaline phosphatase [1]; polymer EMERALD (sapphire and fluorescein), time 0 (background, before enzyme)) was 3434.0, the S/N (alkaline phosphatase [1]; polymer EMERALD, 5 min) was 583.2 and the SIGNAL (alkaline phosphatase [1]; polymer EMERALD, 5 min) was 400510.8. It also gave a S/N (alkaline phosphatase [1]; polymer EMERALD, 20 min) of 964.0, an SIGNAL (alkaline phosphatase [1]; polymer EMERALD, 20 min) of 662054.4 and a S/N (alkaline phosphatase [1]; polymer EMERALD, time 0) of 1.0. It also gave a S/N (alkaline phosphatase [1]; polymer MPB, 5 min) of 257.8, an SIGNAL (alkaline phosphatase [1]; polymer MPB, 5 min) of 22170.5 and a S/N (alkaline phosphatase [1]; polymer MPB, 20 min) of 306.5. For the same compound, the SIGNAL (alkaline phosphatase [1]; polymer MPB, 20 min) was 29133.9, the S/N (alkaline phosphatase [1]; polymer MPB, time 0) was 1.0 and the SIGNAL (alkaline phosphatase [1]; polymer MPB, time 0 (background, before enzyme)) was 86.0. The S/N (alkaline phosphatase [1]; polymer NONE, 5 min) was 47.9, the SIGNAL (alkaline phosphatase [1]; polymer NONE, 5 min, enzyme 2.83×10^-13 M) was 4083.6 and the S/N (alkaline phosphatase [1]; polymer NONE, 20 min) was 52.3. It also gave an SIGNAL (alkaline phosphatase [1]; polymer NONE, 20 min, enzyme 2.83×10^-13 M) of 4460.9, a S/N (alkaline phosphatase [1]; polymer NONE, time 0) of 1.0 and an SIGNAL (alkaline phosphatase [1]; polymer NONE, time 0 (background, before enzyme)) of 85.3. The S/N (alkaline phosphatase [1]; polymer S/TMQ(1:2), 5 min) was 46.7, the SIGNAL (alkaline phosphatase [1]; polymer S/TMQ(1:2), 5 min) was 3121.4 and the S/N (alkaline phosphatase [1]; polymer S/TMQ(1:2), 20 min) was 100.2. The SIGNAL (alkaline phosphatase [1]; polymer S/TMQ(1:2), 20 min) was 6696.9, the S/N (alkaline phosphatase [1]; polymer S/TMQ(1:2), time 0) was 1.0 and the SIGNAL (alkaline phosphatase [1]; polymer S/TMQ(1:2), time 0 (background, before enzyme)) was 66.8. It also gave a S/N (alkaline phosphatase [1]; polymer S/TMQ(1:4), 5 min) of 93.9, an SIGNAL (alkaline phosphatase [1]; polymer S/TMQ(1:4), 5 min) of 5631.2 and a S/N (alkaline phosphatase [1]; polymer S/TMQ(1:4), 20 min) of 165.0. It also gave an SIGNAL (alkaline phosphatase [1]; polymer S/TMQ(1:4), 20 min) of 9957.4, a S/N (alkaline phosphatase [1]; polymer S/TMQ(1:4), time 0) of 1.0 and an SIGNAL (alkaline phosphatase [1]; polymer S/TMQ(1:4), time 0 (background, before enzyme)) of 60.0. For the same compound, the SIGNAL (alkaline phosphatase [1]; polymer SAPPHIRE (BDMQ), time 0 (background, before enzyme)) was 296.0, the S/N (alkaline phosphatase [1]; polymer SAPPHIRE, 5 min) was 371.6 and the SIGNAL (alkaline phosphatase [1]; polymer SAPPHIRE, 5 min) was 51584.5. For the same compound, the S/N (alkaline phosphatase [1]; polymer SAPPHIRE, 20 min) was 505.4, the SIGNAL (alkaline phosphatase [1]; polymer SAPPHIRE, 20 min) was 70161.6 and the S/N (alkaline phosphatase [1]; polymer SAPPHIRE, time 0) was 1.0. The SIGNAL (alkaline phosphatase [1]; polymer TBQ-FLUOR (TBQ and fluorescein), time 0 (background, before enzyme)) was 5882.7, the S/N (alkaline phosphatase [1]; polymer TBQ-FLUOR, 5 min) was 839.4 and the SIGNAL (alkaline phosphatase [1]; polymer TBQ-FLUOR, 5 min) was 987572.0. The S/N (alkaline phosphatase [1]; polymer TBQ-FLUOR, 20 min) was 1280.0, the SIGNAL (alkaline phosphatase [1]; polymer TBQ-FLUOR, 20 min) was 1505971.2 and the S/N (alkaline phosphatase [1]; polymer TBQ-FLUOR, time 0) was 1.0. It also gave a S/N (alkaline phosphatase [1]; polymer TBQ, 5 min) of 1249.6, an SIGNAL (alkaline phosphatase [1]; polymer TBQ, 5 min) of 148394.6 and a S/N (alkaline phosphatase [1]; polymer TBQ, 20 min) of 1763.9. For the same compound, the SIGNAL (alkaline phosphatase [1]; polymer TBQ, 20 min) was 209466.8, the S/N (alkaline phosphatase [1]; polymer TBQ, time 0) was 1.0 and the SIGNAL (alkaline phosphatase [1]; polymer TBQ, time 0 (background, before enzyme)) was 118.8. It also gave a S/N (alkaline phosphatase [1]; polymer TEQ, 5 min) of 397.0, an SIGNAL (alkaline phosphatase [1]; polymer TEQ, 5 min) of 26551.0 and a S/N (alkaline phosphatase [1]; polymer TEQ, 20 min) of 513.5. It also gave an SIGNAL (alkaline phosphatase [1]; polymer TEQ, 20 min) of 34467.2, a S/N (alkaline phosphatase [1]; polymer TEQ, time 0) of 1.0 and an SIGNAL (alkaline phosphatase [1]; polymer TEQ, time 0 (background, before enzyme)) of 67.1. For the same compound, the S/N (alkaline phosphatase [1]; polymer TMQ, 5 min) was 165.0, the SIGNAL (alkaline phosphatase [1]; polymer TMQ, 5 min) was 9941.0 and the S/N (alkaline phosphatase [1]; polymer TMQ, 20 min) was 226.4. For the same compound, the SIGNAL (alkaline phosphatase [1]; polymer TMQ, 20 min) was 13640.5, the S/N (alkaline phosphatase [1]; polymer TMQ, time 0) was 1.0 and the SIGNAL (alkaline phosphatase [1]; polymer TMQ, time 0 (background, before enzyme)) was 50.3. The chemiluminescent signal-to-noise level (alkaline phosphatase [2]; EMERALD 1 1 mg/ml, 5 min) was 583, the chemiluminescent signal-to-noise level (alkaline phosphatase [2]; EMERALD 1 1 mg/ml, 20 min) was 964 and the chemiluminescent signal-to-noise level (alkaline phosphatase [2]; EMERALD 2 1 mg/ml, 5 min) was 839. It also gave a chemiluminescent signal-to-noise level (alkaline phosphatase [2]; EMERALD 2 1 mg/ml, 20 min) of 1280, a chemiluminescent signal-to-noise level (alkaline phosphatase [2]; SAPPHIRE 1 1 mg/ml, 5 min) of 577 and a chemiluminescent signal-to-noise level (alkaline phosphatase [2]; SAPPHIRE 1 1 mg/ml, 20 min) of 827. For the same compound, the chemiluminescent signal-to-noise level (alkaline phosphatase [2]; SAPPHIRE 2 1 mg/ml, 5 min) was 1319, the chemiluminescent signal-to-noise level (alkaline phosphatase [2]; SAPPHIRE 2 1 mg/ml, 20 min) was 2221 and the chemiluminescent signal-to-noise level (alkaline phosphatase [2]; enhancer NONE, 5 min, alkaline phosphatase 2.83×10^-13 M) was 82. The chemiluminescent signal-to-noise level (alkaline phosphatase [2]; enhancer NONE, 20 min) was 98.
